Source: ChEMBL document CHEMBL1909597, “Biological evaluation of glycosyl-isoindigo derivatives against the pathogenic agents of tropical diseases (malaria, Chagas disease, leishmaniasis and human African trypanosomiasis)” (Bioorg Med Chem Lett, 2011)

Tests used:
Plasmodium falciparum = experiment: Antiparasitic activity against Plasmodium falciparum K1 […] assessed as inhibition of parasite growth preincubated for 48 hrs before [3H]hypoxanthine addition measured after 24 hrs by [3H]hypoxanthine incorporation assay; assay type: functional, organism-based
[1] = tested on: Trypanosoma brucei rhodesiense; experiment: Antiparasitic activity against bloodstream form of Trypanosoma brucei rhodesiense STIB 900 […] after 72 hrs by Alamar blue assay; assay type: functional, organism-based; settings: STIB 900, 72 h
Trypanosoma cruzi = experiment: Antiparasitic activity against trypomastigotes of Trypanosoma cruzi Tulahuen C2C4 expressing LacZ gene infected in rat L6 cells after 96 hrs; assay type: functional, organism-based; settings: Tulahuen C2C4, L6, 96 h
Leishmania donovani = experiment: Antiparasitic activity against amastigotes of Leishmania donovani MHOM/ET/67/L82 […] after 72 hrs by Alamar blue assay; assay type: functional, organism-based; settings: MHOM/ET/67/L82, 72 h
L6 = experiment: Cytotoxicity against rat L6 cells after 72 hrs by Alamar blue assay; assay type: cell-based; settings: L6, 72 h
[2] = Selectivity index, ratio of IC50 for rat L6 cells to IC50 for Plasmodium falciparum K1; assay type: toxicity, cell-based; settings: read-out: Ratio IC50
[3] = Selectivity index, ratio of IC50 for rat L6 cells to IC50 for bloodstream form of Trypanosoma brucei rhodesiense STIB 900; assay type: toxicity, cell-based; settings: read-out: Ratio IC50
[4] = Selectivity index, ratio of IC50 for rat L6 cells to IC50 for Leishmania donovani MHOM/ET/67/L82 amastigotes; assay type: toxicity, cell-based; settings: read-out: Ratio IC50
[5] = Selectivity index, ratio of IC50 for rat L6 cells to IC50 for Trypanosoma cruzi Tulahuen C2C4 trypomastigotes; assay type: toxicity, cell-based; settings: read-out: Ratio IC50

Row | Compound | IC50 [1] [µM] | IC50 (Trypanosoma cruzi) [µM] | IC50 (Plasmodium falciparum) [µM] | IC50 (Leishmania donovani) [µM] | IC50 (L6) [µM] | selectivity ratio [2] | selectivity ratio [3] | selectivity ratio [4] | selectivity ratio [5]
1 | O=C(Cn1ccnc1[N+](=O)[O-])NCc1ccccc1 [BENZNIDAZOLE] |  | 2.55 |  |  |  |  |  |  | > 135
2 | CCN(CC)CCCC(C)Nc1ccnc2cc(Cl)ccc12 (stereo unspecified) [CHLOROQUINE] |  |  |  |  |  | 327 |  |  | 
3 | Nc1nc(N)nc(Nc2ccc([As]3SCC(CO)S3)cc2)n1 (stereo unspecified) [MELARSOPROL] | 0.013 |  |  |  |  |  | 193 |  | 
4 | CCCCCCCCCCCCCCCCOP(=O)([O-])OCC[N+](C)(C)C [MILTEFOSINE] |  |  |  | 0.37 |  |  |  | 265 | 

The next lines start with results.

Row | IC50 [1] [µM] | IC50 (Trypanosoma cruzi) [µM] | Compound | IC50 (Plasmodium falciparum) [µM] | IC50 (Leishmania donovani) [µM] | IC50 (L6) [µM] | selectivity ratio [2] | selectivity ratio [3] | selectivity ratio [4] | selectivity ratio [5]
5 | 1.24 | 11.2 | CC(=O)OC[C@H]1O[C@@H](N2C(=O)/C(=C3/C(=O)Nc4ccccc43)c3ccccc32)[C@H](OC(C)=O)[C@@H](OC(C)=O)[C@@H]1OC(C)=O | > 8 | 1.93 | 4.53 |  |  |  | 
6 | 0.51 | > 120 | CCCC(=O)c1ccc2c(c1)/C(=C1\C(=O)N([C@@H]3O[C@H](COC(C)=O)[C@@H](OC(C)=O)[C@H](OC(C)=O)[C@H]3OC(C)=O)c3ccc(Br)cc31)C(=O)N2 | 2.48 | 3.6 | 99 | 39.9 | 194 | 27.5 | 
7 | 0.88 | 19.3 | CC(=O)OC[C@H]1O[C@@H](N2C(=O)/C(=C3/C(=O)Nc4ncccc43)c3cc(Br)ccc32)[C@H](OC(C)=O)[C@@H](OC(C)=O)[C@@H]1OC(C)=O | > 7 | 0.84 | 10 |  |  |  | 
8 | 0.6 | > 130 | CC(=O)OC[C@H]1O[C@@H](N2C(=O)/C(=C3/C(=O)Nc4ccc(OC(F)(F)F)cc43)c3ccccc32)[C@H](OC(C)=O)[C@@H](OC(C)=O)[C@@H]1OC(C)=O | > 7 | 11.1 | 124 |  | 206 |  | 
